In patent US10770169B2, “Method of providing a treatment to a subject based on a dynamic pathway map” (THE REGENTS OF THE UNIVERSITY OF CALIFORNIA, priority 2010, dated 2020):
Where two headings read alike, the source gives them in different places.

System: panel of 55 breast cancer cell lines
Assay: Cell growth inhibition assay (Cell Titer Glo, 72 h, 9 doses; GI50, TGI, LC50)
Format: cell-based, human
[1] = cell line CAMA1, value is the negative log10 of mol/L

`O=C1NC(=O)/C(=C/c2ccc(-c3ccc(F)cc3O)o2)S1` [AS-252424] showed a GI50 (AU565 cell line, censored GI50 values, value is the negative log10 of mol/L) of 4.87, a GI50 (BT20 cell line, censored GI50 values, value is the negative log10 of mol/L) of 4.65 and a GI50 (BT474 cell line, censored GI50 values, value is the negative log10 of mol/L) of 5.36. The GI50 (BT483 cell line, censored GI50 values, value is the negative log10 of mol/L) was 5.37, the GI50 (HCC1187 cell line, censored GI50 values, value is the negative log10 of mol/L) was 5.78 and the GI50 (HCC1419 cell line, censored GI50 values, value is the negative log10 of mol/L) was 4.69. For the same compound, the GI50 (HCC1428 cell line, censored GI50 values, value is the negative log10 of mol/L) was 5.31, the GI50 (HCC1500 cell line, censored GI50 values, value is the negative log10 of mol/L) was 5.24 and the GI50 (HCC1806 cell line, censored GI50 values, value is the negative log10 of mol/L) was 5.15. The GI50 (HCC1954 cell line, censored GI50 values, value is the negative log10 of mol/L) was 5.46, the GI50 (HCC2185 cell line, censored GI50 values, value is the negative log10 of mol/L) was 4.46 and the GI50 (MCF7 cell line, censored GI50 values, value is the negative log10 of mol/L) was 4.80. It also gave a GI50 (MDAMB175VII cell line, censored GI50 values, value is the negative log10 of mol/L) of 4.61, a GI50 (MDAMB361 cell line, censored GI50 values, value is the negative log10 of mol/L) of 4.71 and a GI50 (MDAMB436 cell line, censored GI50 values, value is the negative log10 of mol/L) of 4.74. The GI50 (MDAMB453 cell line, censored GI50 values, value is the negative log10 of mol/L) was 4.69, the GI50 (SKBR3 cell line, censored GI50 values, value is the negative log10 of mol/L) was 4.40 and the GI50 (SUM52PE cell line, censored GI50 values, value is the negative log10 of mol/L) was 4.44. It also gave a GI50 (SUM149PT cell line, censored GI50 values, value is the negative log10 of mol/L) of 4.66, a GI50 (SUM185PE cell line, censored GI50 values, value is the negative log10 of mol/L) of 5.27 and a GI50 (SUM225CWN cell line, censored GI50 values, value is the negative log10 of mol/L) of 5.02. It also gave a GI50 (SUM1315MO2 cell line, censored GI50 values, value is the negative log10 of mol/L) of 4.75, a GI50 (T47D cell line, censored GI50 values, value is the negative log10 of mol/L) of 5.25 and a GI50 (UACC812 cell line, censored GI50 values, value is the negative log10 of mol/L) of 4.88. For the same compound, the GI50 (ZR75B cell line, censored GI50 values, value is the negative log10 of mol/L) was 4.65, the GI50 (ZR751 cell line, censored GI50 values, value is the negative log10 of mol/L) was 5.20 and the GI50 (cell line AU565, value is the negative log10 of mol/L) was 4.87. The GI50 (cell line BT20, value is the negative log10 of mol/L) was 4.65, the GI50 (cell line BT474, value is the negative log10 of mol/L) was 5.36 and the GI50 (cell line BT483, value is the negative log10 of mol/L) was 5.37. It also gave a GI50 [1] of 4.18, a GI50 (cell line HCC70, value is the negative log10 of mol/L) of 4.67 and a GI50 (cell line HCC1187, value is the negative log10 of mol/L) of 5.78. For the same compound, the GI50 (cell line HCC1419, value is the negative log10 of mol/L) was 4.69, the GI50 (cell line HCC1428, value is the negative log10 of mol/L) was 5.31 and the GI50 (cell line HCC1500, value is the negative log10 of mol/L) was 5.24. The GI50 (cell line HCC1806, value is the negative log10 of mol/L) was 5.15, the GI50 (cell line HCC1937, value is the negative log10 of mol/L) was 4.18 and the GI50 (cell line HCC1954, value is the negative log10 of mol/L) was 5.46. It also gave a GI50 (cell line HCC2185, value is the negative log10 of mol/L) of 4.46, a GI50 (cell line HCC3153, value is the negative log10 of mol/L) of 4.48 and a GI50 (cell line LY2, value is the negative log10 of mol/L) of 4.51. It also gave a GI50 (cell line MCF7, value is the negative log10 of mol/L) of 4.80, a GI50 (cell line MDAMB134V, value is the negative log10 of mol/L) of 4.30 and a GI50 (cell line MDAMB175V, value is the negative log10 of mol/L) of 4.61. It also gave a GI50 (cell line MDAMB361, value is the negative log10 of mol/L) of 4.71, a GI50 (cell line MDAMB436, value is the negative log10 of mol/L) of 4.74 and a GI50 (cell line MDAMB453, value is the negative log10 of mol/L) of 4.69. It also gave a GI50 (cell line MDAMB468, value is the negative log10 of mol/L) of 4.18, a GI50 (cell line SKBR3, value is the negative log10 of mol/L) of 4.40 and a GI50 (cell line SUM52PE, value is the negative log10 of mol/L) of 4.44. It also gave a GI50 (cell line SUM149PT, value is the negative log10 of mol/L) of 4.66, a GI50 (cell line SUM185PE, value is the negative log10 of mol/L) of 5.27 and a GI50 (cell line SUM225CWN, value is the negative log10 of mol/L) of 5.02. For the same compound, the GI50 (cell line SUM1315MO, value is the negative log10 of mol/L) was 4.75, the GI50 (cell line T47D, value is the negative log10 of mol/L) was 5.25 and the GI50 (cell line UACC812, value is the negative log10 of mol/L) was 4.88. For the same compound, the GI50 (cell line ZR75B, value is the negative log10 of mol/L) was 4.65 and the GI50 (cell line ZR751, value is the negative log10 of mol/L) was 5.20.
Work on `CCc1c2c(nc3ccc(OC(=O)N4CCC(N5CCCCC5)CC4)cc13)-c1cc3c(c(=O)n1C2)COC(=O)[C@]3(O)CC` [CPT-11] yielded a GI50 (CAMA1 cell line, censored GI50 values, value is the negative log10 of mol/L) of 4.84, a GI50 (MDAMB157 cell line, censored GI50 values, value is the negative log10 of mol/L) of 4.80 and a GI50 [1] of 4.84. It also gave a GI50 (cell line MDAMB157, value is the negative log10 of mol/L) of 4.80.
`Nc1nc2[nH]cc(CCc3ccc(C(=O)N[C@@H](CCC(=O)O)C(=O)O)cc3)c2c(=O)[nH]1` [Pemetrexed] gave a GI50 (Homo sapiens, AU565, cell line AU565, read-out: GI50 (converted)) of 2.95 mM, a GI50 (Homo sapiens, BT-474, cell line BT474, read-out: GI50 (converted)) of 2.95 mM and a GI50 (Homo sapiens, BT-483, cell line BT483, read-out: GI50 (converted)) of 2.95 mM. It also gave a GI50 (Homo sapiens, BT-549, cell line BT549, read-out: GI50 (converted)) of 2.95 mM, a GI50 (Homo sapiens, CAMA-1, CAMA1 cell line, censored GI50 values, read-out: GI50 (converted)) of 1.48 mM and a GI50 (Homo sapiens, CAMA-1, cell line CAMA1, read-out: GI50 (converted)) of 1.48 mM. The GI50 (Homo sapiens, HCC38, cell line HCC38, read-out: GI50 (converted)) was 2.95 mM, the GI50 (Homo sapiens, HCC70, cell line HCC70, read-out: GI50 (converted)) was 2.95 mM and the GI50 (Homo sapiens, HCC202, HCC202 cell line, censored GI50 values, read-out: GI50 (converted)) was 2.09e-05 mM. It also gave a GI50 (Homo sapiens, HCC202, cell line HCC202, read-out: GI50 (converted)) of 2.09e-05 mM, a GI50 (Homo sapiens, HCC1143, cell line HCC1143, read-out: GI50 (converted)) of 2.95 mM and a GI50 (Homo sapiens, HCC1187, cell line HCC1187, read-out: GI50 (converted)) of 2.95 mM. The GI50 (Homo sapiens, HCC1419, cell line HCC1419, read-out: GI50 (converted)) was 2.95 mM, the GI50 (Homo sapiens, HCC1428, cell line HCC1428, read-out: GI50 (converted)) was 2.95 mM and the GI50 (Homo sapiens, HCC1500, HCC1500 cell line, censored GI50 values, read-out: GI50 (converted)) was 0.000501 mM. The GI50 (Homo sapiens, HCC1500, cell line HCC1500, read-out: GI50 (converted)) was 0.000501 mM, the GI50 (Homo sapiens, HCC1806, HCC1806 cell line, censored GI50 values, read-out: GI50 (converted)) was 1.48 mM and the GI50 (Homo sapiens, HCC1806, cell line HCC1806, read-out: GI50 (converted)) was 1.48 mM. The GI50 (Homo sapiens, HCC1937, HCC1937 cell line, censored GI50 values, read-out: GI50 (converted)) was 0.155 mM, the GI50 (Homo sapiens, HCC1937, cell line HCC1937, read-out: GI50 (converted)) was 0.155 mM and the GI50 (Homo sapiens, HCC1954, HCC1954 cell line, censored GI50 values, read-out: GI50 (converted)) was 0.000214 mM. It also gave a GI50 (Homo sapiens, HCC1954, cell line HCC1954, read-out: GI50 (converted)) of 0.000214 mM, a GI50 (Homo sapiens, LY2 cell line, censored GI50 values, read-out: GI50 (converted)) of 0.000468 mM and a GI50 (Homo sapiens, MCF7, cell line MCF7, read-out: GI50 (converted)) of 2.95 mM. For the same compound, the GI50 (Homo sapiens, MDA-MB-157, cell line MDAMB157, read-out: GI50 (converted)) was 2.95 mM, the GI50 (Homo sapiens, MDA-MB-361, MDAMB361 cell line, censored GI50 values, read-out: GI50 (converted)) was 0.00049 mM and the GI50 (Homo sapiens, MDA-MB-361, cell line MDAMB361, read-out: GI50 (converted)) was 0.00049 mM. For the same compound, the GI50 (Homo sapiens, MDA-MB-436, cell line MDAMB436, read-out: GI50 (converted)) was 2.95 mM, the GI50 (Homo sapiens, MDA-MB-453, MDAMB453 cell line, censored GI50 values, read-out: GI50 (converted)) was 0.0339 mM and the GI50 (Homo sapiens, MDA-MB-453, cell line MDAMB453, read-out: GI50 (converted)) was 0.0339 mM. The GI50 (Homo sapiens, MDA-MB-468, MDAMB468 cell line, censored GI50 values, read-out: GI50 (converted)) was 1.48 mM, the GI50 (Homo sapiens, MDA-MB-468, cell line MDAMB468, read-out: GI50 (converted)) was 1.48 mM and the GI50 (Homo sapiens, SK-BR-3, SKBR3 cell line, censored GI50 values, read-out: GI50 (converted)) was 1.48 mM. The GI50 (Homo sapiens, SK-BR-3, cell line SKBR3, read-out: GI50 (converted)) was 1.48 mM, the GI50 (Homo sapiens, SUM52PE, cell line SUM52PE, read-out: GI50 (converted)) was 2.95 mM and the GI50 (Homo sapiens, SUM185PE, cell line SUM185PE, read-out: GI50 (converted)) was 2.95 mM. The GI50 (Homo sapiens, T47D, cell line T47D, read-out: GI50 (converted)) was 2.95 mM, the GI50 (Homo sapiens, UACC-812, cell line UACC812, read-out: GI50 (converted)) was 2.95 mM and the GI50 (Homo sapiens, ZR-75-1, ZR751 cell line, censored GI50 values, read-out: GI50 (converted)) was 0.204 mM. For the same compound, the GI50 (Homo sapiens, ZR-75-1, cell line ZR751, read-out: GI50 (converted)) was 0.204 mM, the GI50 (Homo sapiens, cell line HCC2185, read-out: GI50 (converted)) was 2.95 mM and the GI50 (Homo sapiens, cell line HCC3153, read-out: GI50 (converted)) was 2.95 mM. The GI50 (Homo sapiens, cell line LY2, read-out: GI50 (converted)) was 0.000468 mM, the GI50 (Homo sapiens, cell line MDAMB134V, read-out: GI50 (converted)) was 2.95 mM and the GI50 (Homo sapiens, cell line SUM1315MO, read-out: GI50 (converted)) was 2.95 mM.
